According to article PMC9823006 (Nature Communications, 2023):
Values joined by “and” are separate entries in the source; they are usually repeats but may differ in a detail not shown here. Identical values can stand only once. Like-named read-outs stand apart in the source and are kept apart here. One block for each compound: values may come before it.

Legend:
KalbSec14 [1] = molecular target: T1, KalbSec14 (Rattus norvegicus, UniProt P97924, N62Y/T46S); assay: Isothermal titration calorimetry (preliminary); assay type: binding; conditions: data not shown; authors' response in peer review file; read-out: estimated KD from preliminary ITC data
T1 construct: His6 (TEV-cleavable) (N, cleaved yes); made in house; host or cells: E. coli BL21(DE3)

Kal^Sec14 [2] = molecular target: T2, Kal^Sec14 (Rattus norvegicus, UniProt P97924, N62Y/T46S); assay: NMR chemical shift perturbation (CSP) titration, 1H-15N HSQC; assay type: binding
T2 construct: 19.4 kDa); His6 (TEV-cleavable) (N, cleaved yes); made in house; host or cells: E. coli BL21(DE3)
Protocol: (§1) ^1H-^15N HSQC spectra of the uniformly ^15N-labeled Kal^bSec14 and Kal^Sec14 were recorded at 25 °C on an Agilent VNMRS 800 MHz (^1H) spectrometer equipped with a cryogenic probe. ^1H-^15N HSQC spectra of the uniformly ^15N-labeled Kal^bSec14 mutants were recorded using the TopSpin software (https://www.bruker.com/en/products-and-solutions/mr/nmr-software/topspin.html) at 25 °C on a Bruker Avance NEO 600 MHz spectrometer equipped with a cryogenic probe. All detergents and lipids used in this study were purchased from Cube Biotech Inc. (Wayne, Pennsylvania) and Avanti Polar Lipids, Inc. (Alabaster, Alabama), respectively; details are listed in Supplementary Table 2. After collecting an initial protein-only spectrum with a starting protein concentration of 0.4 mM, each detergent or lipid was dissolved in the same NMR buffer and gradually added to the protein until no further CSP was observed. Each series usually comprised 8-12 titration points, with ligand concentrations ranging from 0 to 8 mM and final protein:ligand ratios from 1:7 to 1:25 (the protein concentration in each mixture during titration was confirmed by UV-vis absorbance at 280 nm). The HSQC spectrum was recorded for each titration point using the same instrument setup as that of the apo protein. All spectra were processed with NMRPipe[59], and peak heights and locations were analyzed in CcpNmr Analysis[60].
(§2) For each titration series, observed CSPs for a single amino acid residue were calculated using the combined shift change (Δδ) of the backbone amide nitrogen and proton based on the equation △δ(ppm)=[△δH2+(α⋅△δN)^2] , where ΔδH and ΔδN are the ^1H and ^15N chemical shift differences between the free and bound states, respectively, and α denotes the chemical shift scaling factor for ^15N[63].
(§3) In each titration series, the peaks for all residues were ranked based on the CSP observed upon titration at the highest ligand concentration. […] The well-resolved and non-overlapped CSPs, usually including most of the 2σ CSPs and some of the 1σ CSPs, were then plotted as a function of the ligand concentration and the dissociation constant (KD) was extracted by nonlinear least-square fitting of the following equation: △δobs=△δmax(KD+[L]t+[P]t)−(KD+[L]t+[P]t)^2−4[L]t[P]t/2[P]t , where [P]t and [L]t are the total protein and ligand concentrations, respectively, and △δmax is the chemical shift difference at saturation. The bound fraction plotted as the y-axis in the Figures was defined as △δobs/△δmax based on the average of the normalized CSPs from all the selected peaks. Titration data for each residue and each peak used for KD calculations are provided in the Source Data file.

KalbSec14 [3] = molecular target: T1, KalbSec14; assay: as above; assay type: binding
Protocol: as §1, §2, §3

KalbSec14 [4] = molecular target: T1, KalbSec14; assay: Liposome flotation binding assay (Accudenz gradient, Western blot)
Protocol: Unilamellar liposomes formed by mixing synthetic dioleoyl phospholipids and cholesterol in proportions mimicking the membranes of the trans-Golgi network (Golgi-mixture) were incubated with Kal^bSec14. An Accudenz gradient was used to separate liposome-bound proteins, which were recovered from the top of the gradient (fraction 1), from unbound proteins, which remained at the bottom (fraction 4). Protein levels in each fraction were analyzed by Western blotting with an antibody to the Sec14 domain of Kalirin.
(§4) The synthetic and natural lipids used in flotation assays were purchased from Avanti Polar Lipids, Inc. (Supplementary Table 2). All powdered lipids were dissolved in chloroform per the manufacturer’s instructions. Liposomes were prepared as previously described. […] Individual test lipids were dried together with the control lipid mix under a nitrogen stream and lyophilized overnight. Each dried lipid film was reconstituted to a final concentration of 1 mM in HN buffer containing 20 mM HEPES (pH 7.4) and 150 mM NaCl. Each final lipid mixtures consisted of 52% DOPC, 20% DOPE, 5% DOPS, 15% cholesterol and 8% tested lipid; inclusion of a trace amount of fluorescent lipid (Liss Rhod PE) allowed for localization of liposomes following gradient fractionation (see below). Each lipid mixture underwent five freeze-thaw cycles separated by vigorous vortexing each time it was thawed. Using a mini-extruder, unilamellar liposomes were prepared by passing each lipid mixture 21 times through a polycarbonate membrane of 100-nm pore size. Hydrated lipid mixtures were stored at −20 °C for up to 1 month; liposomes were freshly prepared for each experiment.
(§5) Flotation assays were conducted following the protocol previously described. Accudenz (Accurate Chemical and Scientific Corp., Westbury, NY) solutions (80 and 20% weight/vol) were prepared in HN buffer. To remove any particulate material, the protein to be tested was first centrifuged at 436,000 g at 4 °C for 15 min in a TL-100 ultracentrifuge using a Beckman TLA100.2 fixed angle rotor. Freshly prepared unilamellar liposomes (50 μl) were combined with 0.2 μg of the centrifuged protein and incubated at room temperature for 30 min. The entire liposome/protein mixture was then combined with 50 μl of 80% Accudenz at the bottom of an ultracentrifuge tube and carefully mixed to completion by pipetting. The resulting mixture was overlayered with […] of 20% Accudenz and then with 50 μl of HN buffer. Samples were centrifuged at 259,000 g at 4 °C for 30 min in the same ultracentrifuge using a Beckman TLS55 swinging bucket rotor. Gradients were then divided into four 100-μl fractions, which were carefully collected from the bottom of the tube using gel loading micropipette tips. Each fraction was analyzed for liposome and protein content using spectrophotometry (546-nm excitation/571-nm emission) and Western blot, respectively. Only those assays with at least 90% of the Liss Rhod PE marker recovered in the top fraction (fraction 1) were used for Western bloting analysis.
(§6) For Western bloting analysis, equal aliquots of each gradient fraction were denatured in 1× Laemmli sample buffer, fractionated on 15% acrylamide gels, and transferred to PVDF membranes. The protein content was detected using a custom-made rabbit antibody to the Sec14 domain of Kalirin (CT302[69], 1:3000) and an HRP-tagged goat anti-rabbit IgG (H + L) secondary antibody (catalog # 31460, 1:6000; ThermoFisher Scientific). SuperSignal West chemiluminescent substrate (Thermo Scientific) and a Syngene PXi digital imaging system (Synoptics Group) were used to visualize blots, with exposures adjusted to be in the linear range.

Kal^cSec14 = conditions: previous studies; cited from earlier work
Kal^Sec14 [5] = molecular target: T2, Kal^Sec14; assay: Liposome flotation binding assay (Accudenz gradient, Western blot); conditions: Suppl. Fig. 9b,c
Protocol: as §4, §5
as §6, with “range. After background subtraction, bands were quantified using the GeneSys software provided with the imaging system, and data were represented as a proportion of total protein recovered. Uncropped blots, quantification of each data point and exact P-values are provided in the Source Data file. […]” for “range.”
a. Representative Western blots from flotation assays with Kal Sec14 alone (Control), and Kal Sec14 with the control lipid mix (Lipo) or with the lipid mix containing the indicated additional lipid. After binding and separation of liposome bound Kal Sec14 from unbound Kal Sec14 on Accudenz gradients, the protein content of four gradient fractions was dete rmined by immunoblot; liposomes were recovered from the top fraction (fraction 1). Source data are […]

α-TTP = molecular target: α-TTP; design: method as in earlier work; conditions: quoted by reviewer as specific binding; ref 1 Panagabko, C. et al. Biochemistry 42, 6467–74 (2003); cited from earlier work
[6] = construct without Ex1B front peptide, NMR titration, mean ± S.D. over residues, 25 °C, read-out: KD
[7] = NMR titration, two-state binding model, mean ± S.D. of CSP data for individual residues, 25 °C, read-out: KD
[8] = source data of the global fitting, S.D. in the next column, read-out: KD, Ave of residue peaks
[9] = mean of independent experiments, normalized to total protein recovered, test lipid 8% of liposome lipid
[10] = average, biological replication ≥ 3
[11] = individual experiments (Exp. 1-4)

Kd (KalbSec14 [1]): ~30 µM | Kd (Kal^Sec14 [2]; [6]): 35.6 ± 7.2 µM | Kd (Kal^Sec14 [2]; read-out: KD of FC14 binding to KalSec14, Ave, average over residue peaks 1-24): 35.6 µM | Kd (KalbSec14 [3]; [7]): 17.1 ± 4.9 µM | Kd (KalbSec14 [3]; [8]): 17.1 µM
Compound: CCCCCCCCCCCCCCOP(=O)([O-])OCC[N+](C)(C)C [FC14, tetradecylphosphocholine]
Kd (Kal^Sec14 [2]; read-out: KD of FC14 binding to KalSec14, fit of individual residue peak, residue peaks 1-24, ligand concentrations given in mM): 47.7 µM and 39.3 µM (2×) and 55.2 µM and 45.5 µM and 35.6 µM (3×) and 25.3 µM and 26.6 µM and 37.4 µM (4×) and 32.3 µM (3×) and 33.9 µM (3×) and 27.9 µM (2×) and 41.2 µM and 24.1 µM

Kd (KalbSec14 [1]): ~500 µM | Kd (Kal^Sec14 [2]; [6]): 514 ± 66 µM | Kd (Kal^Sec14 [2]; read-out: KD of FC12 binding to KalSec14, Ave, average over residue peaks 1-20): 514 µM | Kd (KalbSec14 [3]; [7]): 245 ± 36 µM | Kd (KalbSec14 [3]; [8]): 245 µM | Kd (KalbSec14 [3]; source data of the global fitting, peaks numbered, residues not named, read-out: KD fitted for individual residue peaks): 198 µM and 290 µM and 295 µM and 203 µM and 213 µM and 217 µM and 232 µM and 242 µM and 245 µM and 277 µM and 286 µM
Compound: CCCCCCCCCCCCOP(=O)([O-])OCC[N+](C)(C)C [FC12, dodecylphosphocholine]
Kd (Kal^Sec14 [2]; read-out: KD of FC12 binding to KalSec14, fit of individual residue peak, residue peaks 1-20, ligand concentrations given in mM): 498 µM and 470 µM and 575 µM and 487 µM (2×) and 514 µM and 590 µM and 540 µM and 542 µM and 537 µM and 496 µM (2×) and 477 µM and 505 µM and 512 µM and 511 µM and 332 µM and 481 µM and 555 µM and 685 µM

binding of Kal^bSec14 to liposomes containing the lipid (KalbSec14 [4]; Golgi-mixture liposomes with 8% test lipid, result in words): does not interact | Fraction 1 protein content (top fraction, liposome-bound), densitometry, Ave. (KalbSec14 [4]; [9]): 0.0251 | Fraction 2 protein content, densitometry, Ave. (KalbSec14 [4]; [9]): 0.0079 | Fraction 3 protein content, densitometry, Ave. (KalbSec14 [4]; [9]): 0.11 | Fraction 4 protein content (bottom fraction, unbound), densitometry, Ave. (KalbSec14 [4]; [9]): 0.86 | Fraction 4 protein content (bottom fraction, unbound), densitometry (KalbSec14 [4]; single experiments, normalized to total protein recovered, test lipid 8% of liposome lipid): 0.87 and 0.90 and 0.84 and 0.91 and 0.78 | Densitometry values for the Western blots, Fraction 1, Ave. (Kal^Sec14 [5]; [10]): 0.06 | Densitometry values for the Western blots, Fraction 2, Ave. (Kal^Sec14 [5]; [10]): 0.02 | Densitometry values for the Western blots, Fraction 3, Ave. (Kal^Sec14 [5]; [10]): 0.13 | Densitometry values for the Western blots, Fraction 4, Ave. (Kal^Sec14 [5]; [10]): 0.79 | Densitometry values for the Western blots, Fraction 1 (Kal^Sec14 [5]; [11]): 0.08 and 0.06 and 0.0331 | Densitometry values for the Western blots, Fraction 2 (Kal^Sec14 [5]; [11]): 0.00889 and 0.05 and 0.0021 | Densitometry values for the Western blots, Fraction 3 (Kal^Sec14 [5]; [11]): 0.04 and 0.22 and 0.13 | Densitometry values for the Western blots, Fraction 4 (Kal^Sec14 [5]; [11]): 0.87 and 0.67 and 0.84
Compound: L-α-phosphatidylinositol-4-phosphate [PI4P]
interaction of Kal^cSec14 with liposomes containing the lipid (Kal^cSec14): specifically interacts

Compound: Cc1c(C)c2c(c(C)c1O)CC[C@@](C)(CCC[C@H](C)CCC[C@H](C)CCCC(C)C)O2 [α-tocopherol]
Kd (α-TTP): 0.025 µM
